Columns and labels:
[1] = Stability in mouse urinary bladder assessed as unchanged drug level at 100 mg/kg, po; type: ADME, organism-based; conditions: in vivo
Mus musculus [2] = assay: Time duration maintaining effective drug urine level in mouse at 10 mg/kg, ip; type: ADME, organism-based; conditions: in vivo
Escherichia coli = assay: Antimicrobial activity against uropathogenic Escherichia coli infected in chronic mouse cystitis model assessed as reduction in bacterial levels at 100 mg/kg, po administered as single dose relative to untreated control; type: functional
Mus musculus [3] = assay: Time duration maintaining >10 mM urine level in mouse at 50 mg/kg, po; type: ADME, organism-based; conditions: in vivo
[4] = Binding affinity to Pseudomonas aeruginosa LecA
[5] = Binding affinity to Pseudomonas aeruginosa LecB
[6] = Inhibition of Pseudomonas aeruginosa LecA by ELISA method
Streptococcus suis = assay: […] of Streptococcus suis by hemagglutination inhibition assay; type: functional, organism-based

CNC(=O)c1cc(C(=O)NC)cc(-c2ccc(O[C@H]3O[C@H](CO)[C@@H](O)[C@H](O)[C@@H]3O)cc2)c1
Stability [1]: > 95% | Time (Mus musculus [2]): 8 h | fold change (FC) (Escherichia coli): 3

CNC(=O)c1cc(C(=O)NC)cc(-c2ccc(O[C@H]3O[C@H](CO)[C@@H](O)[C@H](O)[C@@H]3O)c(C)c2)c1
Time (Mus musculus [3]): 6 h

CC(C)C[C@H](NC(=O)[C@@H]1CCCN1C(=O)[C@H](CCCCN)NC(=O)c1ccc(O[C@@H]2O[C@H](CO)[C@H](O)[C@H](O)[C@H]2O)cc1)C(N)=O
Kd [4]: 4200 nM

[N-]=[N+]=NCC(=O)Nc1ccc(O[C@@H]2O[C@H](CO)[C@H](O)[C@H](O)[C@H]2O)cc1
Kd [4]: 5800 nM

OC[C@H]1O[C@@H](Oc2ccc3ccccc3c2)[C@H](O)[C@@H](O)[C@H]1O
Kd [4]: 4200 nM

COC(=O)c1cn([C@@H]2O[C@H](CO)[C@@H](O[C@@H]3O[C@H](C)[C@@H](O)[C@@H](O)[C@@H]3O)[C@H](O)[C@H]2NC(C)=O)nn1
Kd [5]: 290 nM

CO[C@H]1O[C@H](CNS(=O)(=O)c2c(C)cc(C)cc2C)[C@@H](O)[C@H](O)[C@@H]1O
Kd [5]: 3300 nM

CC(C)(C)c1cc2c(Oc3cn(CC(=O)NCCOCCO[C@@H]4O[C@H](CO)[C@H](O)[C@H](O)[C@H]4O)nn3)c(c1)Cc1cc(C(C)(C)C)cc(c1Oc1cn(CC(=O)NCCOCCO[C@@H]3O[C@H](CO)[C@H](O)[C@H](O)[C@H]3O)nn1)Cc1cc(C(C)(C)C)cc(c1Oc1cn(CC(=O)NCCOCCO[C@@H]3O[C@H](CO)[C@H](O)[C@H](O)[C@H]3O)nn1)Cc1cc(C(C)(C)C)cc(c1Oc1cn(CC(=O)NCCOCCO[C@@H]3O[C@H](CO)[C@H](O)[C@H](O)[C@H]3O)nn1)C2
Kd [4]: 90 nM

O=C(Cn1cc(CCC(=O)N[C@H]2[C@@H]3OC[C@H]4O[C@@H](OC[C@H]5O[C@@H](OC[C@H]6O[C@@H](OC[C@@H](O3)[C@@H](O)[C@@H]2O)[C@H](NC(=O)CCc2cn(CC(=O)Nc3ccc(O[C@@H]7O[C@H](CO)[C@H](O)[C@H](O)[C@H]7O)cc3)nn2)[C@@H](O)[C@@H]6O)[C@H](NC(=O)CCc2cn(CC(=O)Nc3ccc(O[C@@H]6O[C@H](CO)[C@H](O)[C@H](O)[C@H]6O)cc3)nn2)[C@@H](O)[C@@H]5O)[C@H](NC(=O)CCc2cn(CC(=O)Nc3ccc(O[C@@H]5O[C@H](CO)[C@@H](O)[C@H](O)[C@H]5O)cc3)nn2)[C@@H](O)[C@@H]4O)nn1)Nc1ccc(O[C@@H]2O[C@H](CO)[C@@H](O)[C@H](O)[C@H]2O)cc1
Kd [4]: 79 nM

OC[C@H]1O[C@@H](OCc2cn([C@H]3[C@H](O)[C@@H](O)[C@H](n4cc([C@@H]5O[C@H](CO)[C@@H](n6cc(CO[C@@H]7O[C@H](CO)[C@H](O)[C@H](O)[C@H]7O)nn6)[C@H](O)[C@H]5O)nn4)O[C@@H]3CO)nn2)[C@H](O)[C@@H](O)[C@H]1O
IC50 [6]: 3500 nM

OC[C@H]1O[C@@H](OCc2cn([C@H]3[C@H](O)[C@@H](O)[C@H](c4cn([C@H]5[C@H](O)[C@@H](O)[C@H](n6cc([C@@H]7O[C@H](CO)[C@@H](n8cc([C@@H]9O[C@H](CO)[C@@H](n%10cc(CO[C@@H]%11O[C@H](CO)[C@H](O)[C@H](O)[C@H]%11O)nn%10)[C@H](O)[C@H]9O)nn8)[C@H](O)[C@H]7O)nn6)O[C@@H]5CO)nn4)O[C@@H]3CO)nn2)[C@H](O)[C@@H](O)[C@H]1O
IC50 [6]: 840 nM

COc1ccc(O[C@@H]2O[C@H](CO)[C@H](O[C@H]3O[C@H](CO)[C@H](O)[C@H](NC(=O)Nc4ccccc4)[C@H]3O)[C@H](O)[C@H]2O)cc1
IC50 (Streptococcus suis): 30 nM

COCO[C@H]1[C@@H](O[C@@H]2[C@H](O)[C@@H](O)[C@H](Oc3ccc(OC)cc3)O[C@@H]2CO)O[C@H](CO)[C@H](O)[C@@H]1O
IC50 (Streptococcus suis): 50 nM

O=C(CCSCC(CSCCC(=O)NCCO[C@@H]1O[C@H](CO)[C@H](O[C@H]2O[C@H](CO)[C@H](O)[C@H](O)[C@H]2O)[C@H](O)[C@H]1O)(CSCCC(=O)NCCO[C@@H]1O[C@H](CO)[C@H](O[C@H]2O[C@H](CO)[C@H](O)[C@H](O)[C@H]2O)[C@H](O)[C@H]1O)CSCCC(=O)NCCO[C@@H]1O[C@H](CO)[C@H](O[C@H]2O[C@H](CO)[C@H](O)[C@H](O)[C@H]2O)[C@H](O)[C@H]1O)NCCO[C@@H]1O[C@H](CO)[C@H](O[C@H]2O[C@H](CO)[C@H](O)[C@H](O)[C@H]2O)[C@H](O)[C@H]1O
IC50 (Streptococcus suis): 2 nM

COC(=O)c1cc(OCCNC(=O)c2cc(OCCNC(=O)COCC(=O)NCCO[C@@H]3O[C@H](CO)[C@H](O[C@H]4O[C@H](CO)[C@H](O)[C@H](O)[C@H]4O)[C@H](O)[C@H]3O)cc(OCCNC(=O)COCC(=O)NCCO[C@@H]3O[C@H](CO)[C@H](O[C@H]4O[C@H](CO)[C@H](O)[C@H](O)[C@H]4O)[C@H](O)[C@H]3O)c2)cc(OCCNC(=O)c2cc(OCCNC(=O)COCC(=O)NCCO[C@@H]3O[C@H](CO)[C@H](O[C@H]4O[C@H](CO)[C@H](O)[C@H](O)[C@H]4O)[C@H](O)[C@H]3O)cc(OCCNC(=O)COCC(=O)NCCO[C@@H]3O[C@H](CO)[C@H](O[C@H]4O[C@H](CO)[C@H](O)[C@H](O)[C@H]4O)[C@H](O)[C@H]3O)c2)c1
IC50 (Streptococcus suis): 0.3 nM

COc1ccc(O[C@@H]2O[C@H](CO)[C@H](O[C@H]3O[C@H](CO)[C@H](O)[C@H](O)[C@H]3O)[C@H](O)[C@H]2O)cc1
IC50 (Streptococcus suis): 310 nM

OC[C@H]1O[C@@H](Sc2ccc3ccccc3c2)[C@H](O)[C@@H](O)[C@H]1O
Kd [4]: 6300 nM

CC(=O)N[C@H]1C(O)O[C@H](CO)[C@@H](O[C@@H]2O[C@@H](C)[C@@H](O)[C@@H](O)[C@@H]2O)[C@@H]1O[C@@H]1O[C@H](CO)[C@H](O)[C@H](O)[C@H]1O (stereo partly drawn)
Kd [5]: 210 nM

OC[C@H]1O[C@@H](OCc2cn([C@H]3[C@H](O)[C@@H](O)[C@H](c4cn([C@H]5[C@H](O)[C@@H](O)[C@H](n6cc([C@@H]7O[C@H](CO)[C@@H](n8cc(CO[C@@H]9O[C@H](CO)[C@H](O)[C@H](O)[C@H]9O)nn8)[C@H](O)[C@H]7O)nn6)O[C@@H]5CO)nn4)O[C@@H]3CO)nn2)[C@H](O)[C@@H](O)[C@H]1O
Kd [4]: 28 nM | IC50 [6]: 2.7 nM

O=C[C@H](O)[C@@H](O)[C@@H](O)[C@H](O)CO [GALACTOSE]
Kd [4]: 87500 nM
